Data published in patent US20120077876A1, “Method For Improved Bioactivation Of Pharmaceuticals” (Dritte Patentportfolio Beteiligungsgesellschaft Mbh & Co. KG, priority 2009, published 2012).

T1: peptidylglycine α-amidating monooxygenase (PAM) (Rattus norvegicus, UniProt P14925)
T1 construct: purchased Unigene Laboratories, Inc. (New Jersey, USA)
T1 sequence (P14925 36-871 isoform P14925-2 limits assumed): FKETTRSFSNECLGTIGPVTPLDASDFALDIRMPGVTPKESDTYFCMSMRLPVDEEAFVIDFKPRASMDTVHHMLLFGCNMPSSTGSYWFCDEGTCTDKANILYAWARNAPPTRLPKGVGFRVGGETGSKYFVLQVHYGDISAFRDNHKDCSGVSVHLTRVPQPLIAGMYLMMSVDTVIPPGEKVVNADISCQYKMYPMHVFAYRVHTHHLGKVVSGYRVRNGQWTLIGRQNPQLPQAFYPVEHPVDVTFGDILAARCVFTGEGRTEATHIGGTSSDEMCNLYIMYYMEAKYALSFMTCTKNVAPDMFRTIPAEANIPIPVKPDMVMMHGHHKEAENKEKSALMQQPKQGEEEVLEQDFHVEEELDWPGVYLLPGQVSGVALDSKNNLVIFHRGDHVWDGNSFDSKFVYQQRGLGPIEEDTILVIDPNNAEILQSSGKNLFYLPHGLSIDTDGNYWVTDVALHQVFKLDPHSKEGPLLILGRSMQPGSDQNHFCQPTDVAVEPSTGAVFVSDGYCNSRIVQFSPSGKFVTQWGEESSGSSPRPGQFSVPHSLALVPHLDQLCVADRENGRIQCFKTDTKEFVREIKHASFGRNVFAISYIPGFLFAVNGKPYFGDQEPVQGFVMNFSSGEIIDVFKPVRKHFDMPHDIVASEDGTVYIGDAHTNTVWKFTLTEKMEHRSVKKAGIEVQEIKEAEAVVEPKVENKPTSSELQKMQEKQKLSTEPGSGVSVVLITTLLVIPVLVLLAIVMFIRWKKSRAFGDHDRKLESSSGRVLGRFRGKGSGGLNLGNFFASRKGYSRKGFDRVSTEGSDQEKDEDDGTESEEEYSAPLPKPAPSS

B1: peptidylglycine α-amidating monooxygenase (PAM) (Rattus norvegicus) (protein)
chain: FKETTRSFSNECLGTIGPVTPLDASDFALDIRMPGVTPKESDTYFCMSMRLPVDEEAFVIDFKPRASMDTVHHMLLFGCNMPSSTGSYWFCDEGTCTDKANILYAWARNAPPTRLPKGVGFRVGGETGSKYFVLQVHYGDISAFRDNHKDCSGVSVHLTRVPQPLIAGMYLMMSVDTVIPPGEKVVNADISCQYKMYPMHVFAYRVHTHHLGKVVSGYRVRNGQWTLIGRQNPQLPQAFYPVEHPVDVTFGDILAARCVFTGEGRTEATHIGGTSSDEMCNLYIMYYMEAKYALSFMTCTKNVAPDMFRTIPAEANIPIPVKPDMVMMHGHHKEAENKEKSALMQQPKQGEEEVLEQDFHVEEELDWPGVYLLPGQVSGVALDSKNNLVIFHRGDHVWDGNSFDSKFVYQQRGLGPIEEDTILVIDPNNAEILQSSGKNLFYLPHGLSIDTDGNYWVTDVALHQVFKLDPHSKEGPLLILGRSMQPGSDQNHFCQPTDVAVEPSTGAVFVSDGYCNSRIVQFSPSGKFVTQWGEESSGSSPRPGQFSVPHSLALVPHLDQLCVADRENGRIQCFKTDTKEFVREIKHASFGRNVFAISYIPGFLFAVNGKPYFGDQEPVQGFVMNFSSGEIIDVFKPVRKHFDMPHDIVASEDGTVYIGDAHTNTVWKFTLTEKMEHRSVKKAGIEVQEIKEAEAVVEPKVENKPTSSELQKMQEKQKLSTEPGSGVSVVLITTLLVIPVLVLLAIVMFIRWKKSRAFGDHDRKLESSSGRVLGRFRGKGSGGLNLGNFFASRKGYSRKGFDRVSTEGSDQEKDEDDGTESEEEYSAPLPKPAPSS
notes: purchased Unigene Laboratories, Inc. (New Jersey, USA)

Experiments:
[1] = target: T1, peptidylglycine α-amidating monooxygenase (PAM); assay: PAM assay with colorimetric determination of glyoxylate formation; assay type: biochemical; details: for formation of glyoxylate as the cleavage product of the PAM catalysis: colorimetric assay, substrate 0.1 mM or 1 mM, pH 6.0 and pH 7.4, 37° C.
Description: (§1) The recombinant peptidylglycine α-amidating monooxygenase (PAM, rat, EC 1.14.17.3) that was used was provided by Unigene Laboratories, Inc. (New jersey, USA) (specific activity=5.8 10^6 U/mg protein); bovine liver catalase (EC 1.11.1.6), specific activity=12600 U/mg solid (Aldrich).
(§2) A typical incubation batch of 300 μl (total volume) contained 25000 U/ml peptidylglycine α-amidating monooxygenase (PAM, company: Unigene Laboratories), 250 U/ml catalase, 1 μM copper(II) (employed as acetate/monohydrate), 2 mM sodium ascorbate, 5 mM potassium iodide and the respective substrate in 0.1 mM or 1 mM concentration, in buffers having different pH values. The buffer system used was 30 mM MES for the incubation at pH 6.0 and 50 mM HEPES for the incubation at pH 7.4. The pH value was adjusted in each case with diluted sodium hydroxide. The incubation was carried out at 37° C. in the shaking water bath for 60 minutes, 100 μl was withdrawn, and the reaction was stopped with 50 μl 10% TFA(aq)/acetonitrile (2:3). The remaining batch was incubated for another 180 minutes at 37° C. and stopped with 100 μl 10% TFA(aq)/acetonitrile (2:3).
(§3) The stopped samples were shaken for 5 minutes (vortexer) and frozen at −80° C. To analyze the samples, they were thawed, shaken for 5 minutes, and the precipitated protein was centrifuged at 10000 rpm. The supernatant was used for the colorimetric glyoxylate determination and/or HPLC measurement.
200 μl of the incubation batch that was freed of protein was mixed with 20 μl of a phenylhydrazine solution (20 mg in 2 ml aqua bidest.) and shaken for 5 minutes in the shaking water bath at 37° C. […] The batch was allowed to rest for 15 minutes at room temperature and 200 μl was withdrawn for the measurement using a Plate Reader (Cary 50 UV-Vis photometer, 520 nm).
For a 5-point calibration, glyoxalic acid in concentrations of 2, 5, 10, 50 and 100 μM in a 2:1 mixture of assay buffer (pH 6.0):10% TFA(aq)/acetonitrile (2:3) was measured as described above. […]

[2] = target: T1, peptidylglycine α-amidating monooxygenase (PAM); assay: PAM substrate kinetics (KM and Vmax) by HPLC; assay type: biochemical; details: for Vmax value: pH 6.0, 30 minutes incubation, n=2
Description: as §1
as §2, with “The incubation was carried out at 37° C. in the shaking water bath for 60 minutes, 100 μl was withdrawn, and the reaction was stopped with 50 μl 10% TFA(aq)/acetonitrile (2:3).” left out
as §3
For the KM and Vmax determination, 100 μl batches were treated at pH 6.0 under the aforementioned conditions, however with the difference that the incubation time was 30 minutes.
HPLC Analysis for Separating O-carboxymethyl benzamidoxime (1) and benzamidoxime (2)
(§4) For the calibration, benzamidoxime was dissolved in eight concentrations of 0.1-500 μM, dissolved in assay buffer (30 mM MES, 1 μM copper(II) acetate, 2 mM sodium ascorbate, 5 mM potassium iodide, pH 6.0), and measured using the aforementioned HPLC method. […]
(§5) For the calibration, N-hydroxy-N′,N″-diphenyl guanidine (4) was dissolved in eight concentrations of 0.1-500 μM, dissolved in assay buffer (30 mM MES, […], 2 mM sodium ascorbate, 5 mM potassium iodide, pH 6.0), and measured using the aforementioned HPLC method.

cytochrome P450 (CYP450) [3] = assay: CYP450 substrate study, porcine liver microsomes and 9000 g supernatant; assay type: in vitro ADME; details: pork liver enzyme sources, pH 6.0 and pH 7.4, NADH or NADPH, 60 or 180 minutes
Description: The pork livers were procured from a local butcher (Bordesholm) and the organs were transported directly after slaughter in an ice-cooled 20 mM phosphate buffer (1 mM Na2 EDTA, pH 7.4). For further processing, the liver lobes were first perfused with 50 mM phosphate buffer (1 mM Na2 EDTA, pH 7.4) and washed. The tissue was cut into pieces and run through a commercially available meat grinder. The suspension was diluted an equal volume of phosphate buffer and homogenized using a flow homogenizer. The microsomes and 9000 g supernatant were further obtained by differential ultracentrifugation. For storage, the resulting preparations were aliquotted and frozen at −80° C.
(§6) A typical incubation bath of 500 μl (total volume) contained 0.3 mg protein (pork or human liver enzyme source), 0.1 mM (or 1 mM) test compound in 100 mM phosphate buffer (pH 6.0 or pH 7.4) and 1 mM NADH (or NADPH). The incubation was started after a 5-minute pre-incubation of the enzyme and test compound in buffer, adding NADH (or NADPH), and the product was shaken for 60 minutes or 180 minutes at 37° C. in the shaking water batch. The batches were stopped by adding the same volume of acetonitrile, shaken using the vortexer, and frozen at −80° C.
To analyze the samples, they were thawed, shaken 5 minutes using the vortexer, and the protein was separated by means of 5-minute centrifugation at 10000 rpm. […]

cytochrome P450 (CYP450) [4] = assay: CYP450 substrate study, human liver microsomes and 9000 g supernatant; assay type: in vitro ADME; details: human liver enzyme sources, pH 6.0 and pH 7.4, NADH or NADPH, 60 or 180 minutes
Description: To obtain human microsomes, human liver tissue from cancer patients of the surgical department of the University Clinic of Christian-Albrecht University was obtained who had to undergo hemihepatectomy.
The liver tissue pieces were flash-frozen in a saccharose-containing phosphate buffer (10 mM K2HPO4, 10 mM KH2PO4, 250 mM saccharose, 1 mM Na2 EDTA, pH 7.4, 4° C.). As soon as a sufficient quantity of organ parts (>3) was available, the corresponding pieces were thawed and pooled so as to compensate for differences due to interindividual variations. The tissue pieces were cut into smaller parts at 4° C., washed several times with buffer solution (without EDTA), and processed into a suspension using a homogenizer. The microsomes and 9000 g supernatant were further obtained from this suspension by differential ultracentrifugation. For storage, the resulting preparations were aliquotted and frozen at −80° C.
as §6, with “The batches were stopped by adding the same volume of acetonitrile, shaken using the vortexer, and frozen at −80° C.” left out

[5] = substrate: O=C(O)CON=C(Nc1ccccc1)Nc1ccccc1; assay: PAM substrate kinetics (KM and Vmax) by HPLC; assay type: biochemical, rat; details: other: pH 6.0, 30 minutes incubation, two independent experiments (n=2), 37.0 °C
Description: as §1
as §2, with “The incubation was carried out at 37° C. in the shaking water bath for 60 minutes, 100 μl was withdrawn, and the reaction was stopped with 50 μl 10% TFA(aq)/acetonitrile (2:3). The remaining batch was incubated for another 180 minutes at 37° C. and stopped with 100 μl 10% TFA(aq)/acetonitrile (2:3).” left out
as §4, §5

[6] = substrate: N/C(=N\OCC(=O)O)c1ccccc1; assay: PAM substrate kinetics (KM and Vmax) by HPLC; assay type: biochemical, rat; details: other: pH 6.0, 30 minutes incubation, two independent experiments (n=2), 37.0 °C
Description: as §1
as §2, with “The incubation was carried out at 37° C. in the shaking water bath for 60 minutes, 100 μl was withdrawn, and the reaction was stopped with 50 μl 10% TFA(aq)/acetonitrile (2:3). The remaining batch was incubated for another 180 minutes at 37° C. and stopped with 100 μl 10% TFA(aq)/acetonitrile (2:3).” left out
as §4, §5

Row | Molecule | formation of glyoxylate as the cleavage product of the PAM catalysis [1] | conversion rate in comparison with the amidoxime prodrug 1 ([2]; comparison of Vmax) | Vmax value [2] | detection of O-dealkylated metabolite and its N-reduction product by HPLC (cytochrome P450 (CYP450) [3]) | conversion at the pH optimum of PAM (pH 6.0) in comparison with incubation at pH 7.4 ([1]; colorimetric glyoxylate determination, FIG. 1) | detection of O-dealkylated metabolite and its N-reduction product by HPLC (cytochrome P450 (CYP450) [4]) | Km [5] [µM] | Km [6] [µM]
1 | O=C(O)CON=C(Nc1ccccc1)Nc1ccccc1 [compound 3, N-carboxymethoxy-N′,N″-diphenyl guanidine] | comparable to those of the amidoxime model compound 1 | comparable | 373 ± 53 nmol min⁻¹ mg⁻¹ PAM |  |  |  |  | 
2 | N/C(=N\OCC(=O)O)c1ccccc1 [compound 1, O-carboxymethyl benzamidoxime] | verified in an concentration-dependent manner |  | 393±40 nmol min^−1 mg^−1 PAM | neither benzamidoxime possible prodrug of benzamidine) nor benzamidine were detected | considerably higher conversions | neither benzamidoxime possible prodrug of benzamidine) nor benzamidine were detected |  | 
3 | B1 |  |  |  |  |  |  | 37 ± 5 | 307 ± 80
